Results on 22 compounds are retold here after PubChem BioAssay (NCI).

Structures are written as SMILES. Several values for one entry are separate records, joined by “and”; a condition that tells them apart may be missing. Equal entries are not always repeated.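 In this assay, cells in 96-well plates receive the compound at five concentrations for 48 hours. Endpoints are linearly interpolated between the surrounding concentrations. GI50: concentration for 50% inhibition of growth. TGI: total growth inhibition.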

Among the test systems are MCF7 breast; T-47D breast; BT-549 breast; MDA-N.
Common to all, as to assay: NCI-60 cell line screen, 48 h

Regarding `CCOC(=O)c1c(NC(=O)c2cccc(C(F)(F)F)c2)sc2c(CN(C)C)c(O)ccc12`, the GI50 in the test on MCF7 breast is 2.81 µM; in the test on T-47D breast, 3.74 µM; in the test with BT-549 breast it was 12.2 µM. The results for the TGI in the test with MCF7 breast, in the test on T-47D breast and in the test on BT-549 breast were 12.1 µM, 21.4 µM and 26.9 µM, respectively.
`N=C(N)c1ccc2nc(-c3cc(CC(=O)N[C@@H](CC(=O)O)C(=O)O)cc(-c4cc(S(N)(=O)=O)ccc4O)c3O)[nH]c2c1`: the GI50 in the test on MCF7 breast, in the test on T-47D breast and in the test on BT-549 breast was above 100 µM in each case. The TGI in the test on MCF7 breast, with T-47D breast and in the test with BT-549 breast was above 100 µM throughout.
As for `Cc1nc2sc3c(c2c(=O)[nH]1)CCCC3`, the TGI in the test with MCF7 breast, in the test with MDA-N, in the test on T-47D breast and with BT-549 breast was above 100 µM throughout.
For `COc1cc(OC)c(/C=C/c2c3ccccc3cc[n+]2C)c(OC)c1`, the GI50 in the test on MCF7 breast was 1.02 µM; in the test with T-47D breast, 0.541 µM; in the test with BT-549 breast, 1.58 µM. Also, the TGI in the test on MCF7 breast is 18.2 µM; with T-47D breast, above 26.2 µM; with BT-549 breast it was 21.8 µM.
As to `O=C(Nc1ccc(-n2ccc3c(NC(=O)c4ccccc4)nccc32)cc1)Nc1ccc(Cl)c(Cl)c1`, the GI50 was 1.1 µM with MCF7 breast, 2.03 µM with T-47D breast and 3.08 µM in the test on BT-549 breast. Moreover, the TGI in the test on MCF7 breast amounted to 2.37 µM; in the test on T-47D breast it was 5.33 µM; with BT-549 breast it was 17.9 µM.
For the compound `Cc1cc(C)c(NC(=O)c2sc3nc4c(cc3c2N)CN(Cc2ccccc2)CC4)c(C)c1`, the results for the GI50 with MCF7 breast, in the test with T-47D breast and in the test on BT-549 breast were 1.61 µM, 2.62 µM and 4.05 µM, respectively. The TGI in the test with MCF7 breast is 32.2 µM; in the test on T-47D breast, above 100 µM; in the test with BT-549 breast, 57.6 µM.
In the case of `O=C(Nc1ccc(F)cc1)c1cc(S(=O)(=O)Nc2nc3ccccc3o2)c(SCc2ccccc2)cc1Cl`, the GI50 in the test with MCF7 breast was 24.8 µM; in the test on T-47D breast it was 28.3 µM; in the test with BT-549 breast, 18.5 µM. Also, the results for the TGI in the test with MCF7 breast, in the test with T-47D breast and with BT-549 breast were 63.7 µM, above 100 µM and 38.9 µM, respectively.
`CCN1C(=O)N(CC)C2C1NN=c1s/c(=C3\C(=O)N(CC(C)(C)C)c4ccccc43)c(=O)n12` (stereo unspecified): the values for the GI50 with MCF7 breast, with T-47D breast and in the test with BT-549 breast were 1.62 µM, 5.71 µM and 2.62 µM, respectively. In addition, the TGI with MCF7 breast amounted to 18.7 µM; with T-47D breast, 53.7 µM; in the test on BT-549 breast it was 9.65 µM.
Regarding `O=CN1CCN(CC(O)CN2CCCCC2)CC1` (stereo unspecified), the TGI in the test on MCF7 breast, in the test on MDA-N, in the test with T-47D breast and with BT-549 breast was above 100 µM in each case.
In the test on MCF7 breast, `COC(=O)[C@@H](C)C[C@H](Cc1ccccc1)NC(=O)c1csc([C@@H](C[C@H](C(C)C)N(C)C(=O)[C@@H](NC(=O)[C@H]2CCCCN2C)C2CCCCC2)OC(C)=O)n1` showed a TGI above 25 µM. For the same compound, in the test with BT-549 breast, the GI50 was 0.000701 µM and 0.0025 µM.
As for `NC(=O)c1cc(S(=O)(=O)Nc2nnc(-c3ccccc3)c(-c3ccccc3)n2)c(SCc2ccccc2)cc1Cl`, the GI50 with MCF7 breast is 30.2 µM; with T-47D breast, above 100 µM; in the test on BT-549 breast it was above 53.1 µM. The results for the TGI in the test with MCF7 breast, with T-47D breast and in the test on BT-549 breast were above 66.4 µM, above 100 µM and above 89.7 µM, respectively.
Regarding `COCC1(CO)C(=O)C2CCN1CC2` (stereo unspecified), the GI50 is 19.1 µM with MCF7 breast, 9.55 µM with T-47D breast and 15.6 µM in the test on BT-549 breast. The TGI was 52.6 µM in the test with MCF7 breast, 34.3 µM in the test on T-47D breast and 29.5 µM in the test with BT-549 breast.
Take `O[C@H](c1cc(C(F)(F)F)nc2c(C(F)(F)F)cccc12)[C@@H]1CCCCN1`: the GI50 with MCF7 breast is 2.46 µM; in the test with T-47D breast, 3.82 µM; with BT-549 breast it was 12.1 µM. Also, the values for the TGI in the test on MCF7 breast, with T-47D breast and with BT-549 breast were 6.8 µM, 16 µM and 25.5 µM, respectively.
Take `CCOc1ccncc1[N+](=O)[O-]`: the TGI in the test with MCF7 breast, in the test with MDA-N, in the test on T-47D breast and in the test on BT-549 breast was above 100 µM in each case.
As for `CSc1ccc2c(c1)C(=O)c1c-2n(CCCBr)c(=O)c2cc([N+](=O)[O-])ccc12`, the GI50 in the test on MCF7 breast is 1.58 µM; in the test on T-47D breast, 17.8 µM; in the test on BT-549 breast, 80.7 µM. In addition, the TGI in the test with MCF7 breast, in the test with T-47D breast and with BT-549 breast was above 100 µM throughout.
For the compound `C=C1C(=O)O[C@H]2[C@H]1CC/C(COC(=O)/C=C\C(=O)NCc1ccc(Cn3c(=O)sn(CCCC)c3=O)cc1)=C\CC[C@@]1(C)O[C@@H]21`, the GI50 in the test with MCF7 breast is 0.365 µM; in the test with T-47D breast it was 1.27 µM; in the test on BT-549 breast, 0.909 µM. Besides, the TGI with MCF7 breast stood at 2.03 µM; with T-47D breast, 4.22 µM; in the test with BT-549 breast it was 2.23 µM.
As for `O=S(=O)(Nc1ccc(F)cc1F)c1ccc(-c2cnc(C3CC3)o2)cc1`, the GI50 in the test with MCF7 breast was 0.398 µM; in the test with T-47D breast, 0.443 µM; with BT-549 breast, 0.597 µM. The TGI with MCF7 breast was above 55.9 µM; in the test on T-47D breast, 52.8 µM; in the test on BT-549 breast it was 24 µM.
As for `O=C(c1ccc(/C=C/c2n[nH]c3ccccc23)cc1)N1CCNCC1`, the TGI with MCF7 breast is 2.46 µM and 15.5 µM; in the test on T-47D breast, 47.1 µM; in the test on BT-549 breast, > 10 µM and 13.6 µM. Besides, the GI50 with T-47D breast was 19.5 µM; with BT-549 breast, 5.58 µM and 4.14 µM.
Consider `CCN(Cc1ccccc1C)c1ccc(CO)c(Cl)c1`, for which the GI50 in the test with MCF7 breast is 2 µM; in the test on T-47D breast, 0.244 µM; in the test with BT-549 breast, 15.8 µM. Besides, the TGI in the test on MCF7 breast is 14.7 µM; with T-47D breast, 2.19 µM; in the test on BT-549 breast, 30.1 µM.
As for `CC(=O)Oc1ccccc1C(=O)Nc1ncc([N+](=O)[O-])s1`, the GI50 is 2.26 µM with MCF7 breast, 2.88 µM in the test on T-47D breast and 1.97 µM in the test on BT-549 breast. For the same compound, the TGI with MCF7 breast was 10.3 µM and > 100 µM; in the test with MDA-N, above 90.1 µM; in the test on T-47D breast it was > 26.6 µM and 60.3 µM.
In the case of `Cc1cc(C)c(/C=C2\C(=O)Nc3ccc(NC(=O)CCCCCCC(=O)NO)cc32)[nH]1`, in the test on MCF7 breast, the GI50 is 0.529 µM and the TGI is above 100 µM. In the test with BT-549 breast, the GI50 is 4.43 µM and the TGI was above 100 µM.
For `Cc1nc(-[n+]2nc(-c3ccncc3)nn2-c2ccccc2)sc1C`, the TGI with MCF7 breast is above 100 µM; in the test on T-47D breast it was above 100 µM; in the test with BT-549 breast, 41 µM.
